“Also recorded” adds a separate entry of the source.
Columns and labels:
EMT-6 cells = assay: colony formation; assay type: cell-based, mouse
MDA-MB435 cells = assay: colony formation; assay type: cell-based, human
Panc-02 = settings: cited from earlier work
σ2 receptor = biological target: T1, σ2 receptor (Rattus norvegicus, UniProt Q5U3Y7); assay: σ2 receptor competitive binding with [^3H]RHM-1; settings: Ki of σ1/σ2 ratio
T1 sequence (Q5U3Y7 1-176): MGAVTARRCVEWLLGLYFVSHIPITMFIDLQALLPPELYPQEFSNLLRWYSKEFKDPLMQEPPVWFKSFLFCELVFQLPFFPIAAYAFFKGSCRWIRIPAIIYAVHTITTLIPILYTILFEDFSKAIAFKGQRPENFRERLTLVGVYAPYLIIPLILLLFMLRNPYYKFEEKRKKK

5-HT3 = settings: read-out: Ki 5-HT3; cited from earlier work
5-HT4 = settings: read-out: Ki 5-HT4; cited from earlier work

## COc1ccc(C)cc1NC(=O)OC1CC2CCCC(C1)N2Cc1ccc(N(C)C)cc1 (centres unmarked) [WC-26, 9-(4-(Dimethylamino)benzyl)-9-azabicyclo[3.3.1]nonan-3-yl-2-methoxy-5-methyl-phenylcarbamate]
EMT-6 cells; EMT-6, 2 μM WC-26 16 h, then range of DOX concentrations added for 24 h
  clonogenic survival, combination with DOX compared to DOX alone: large decrease in clonogenic survival
EMT-6 cells; EMT-6, 2 μM WC-26 alone, 40 h
  cell kill as single agent: no measureable cell kill; also recorded: no tumor cell kill
MDA-MB435 cells; MDA-MB435, 2 μM WC-26 16 h, then range of DOX concentrations added for 24 h
  clonogenic survival, combination with DOX compared to DOX alone: large decrease in clonogenic survival
MDA-MB435 cells; MDA-MB435, 2 μM WC-26 alone, 40 h
  cell kill as single agent: no measureable cell kill; also recorded: no tumor cell kill
Panc-02; flow cytometry
  apoptosis in treated tumors: dose-dependent increases in apoptosis
Panc-02; treated mice
  systemic toxicity: no evidence of systemic toxicity

## COc1cccc2c1C(=O)c1c(O)c3c(c(O)c1C2=O)C[C@@](O)(C(=O)CO)C[C@@H]3O[C@H]1C[C@H](N)[C@H](O)[C@H](C)O1 [DOX, doxorubicin, reference compound]
EMT-6 cells; EMT-6, DOX <20 μM, 24 h
  tumor cell kill as single agent: no tumor cell kill
MDA-MB435 cells; MDA-MB435, DOX <20 μM, 24 h
  tumor cell kill as single agent: no tumor cell kill

## COc1ccc(C)cc1NC(=O)OC1CC2CCCC(C1)N2Cc1ccc(CCF)cc1 (centres unmarked) [WC-59, 9-(4-(2-Fluoroethyl)benzyl)-9-azabicyclo[3.3.1]nonan-3-yl-2-methoxy-5-methyl-phenylcarbamate]
σ2 receptor
  σ1/σ2 (Ki ratio): 2,087

## COc1ccc(C)cc1NC(=O)OC1CC2CCCC(C1)N2Cc1ccccc1 (centres unmarked) [Compound 6, 9-Benzyl-9-azabicyclo[3.3.1]nonan-3-yl-2-methoxy-5-methylphenylcarbamate]
5-HT3
  Ki: > 1 µM
5-HT4
  Ki: > 1 µM
